# Data taken from PMC10866072, “Design, synthesis, molecular modelling and biological evaluation of novel 6-amino-5-cyano-2-thiopyrimidine derivatives as potent anticancer agents against leukemia and apoptotic inducers” (Journal of Enzyme Inhibition and Medicinal Chemistry, 2024).
# How the values were obtained:
# CCRF-CEM = format: cell-based; conditions: Homo sapiens, one dose 10^-5 M, 48 h
# HL-60(TB) = format: cell-based; conditions: Homo sapiens, one dose 10^-5 M, 48 h
# K-562 = format: cell-based; conditions: Homo sapiens, K562, one dose 10^-5 M, 48 h
# MOLT-4 = format: cell-based; conditions: Homo sapiens, one dose 10^-5 M, 48 h, read-out: % growth
# RPMI-8226 = format: cell-based; conditions: Homo sapiens, one dose 10^-5 M, 48 h
# SR = format: cell-based; conditions: Homo sapiens, one dose 10^-5 M, 48 h
# A549/ATCC = format: cell-based; conditions: Homo sapiens, one dose 10^-5 M, 48 h
# EKVX = format: cell-based; conditions: Homo sapiens, one dose 10^-5 M, 48 h
# HOP-62 = format: cell-based; conditions: Homo sapiens, one dose 10^-5 M, 48 h
# HOP-92 = format: cell-based; conditions: Homo sapiens, one dose 10^-5 M, 48 h
# NCI-H226 = format: cell-based; conditions: Homo sapiens, one dose 10^-5 M, 48 h
# NCI-H23 = format: cell-based; conditions: Homo sapiens, one dose 10^-5 M, 48 h, read-out: % growth
# NCI-H460 = format: cell-based; conditions: Homo sapiens, one dose 10^-5 M, 48 h, read-out: % growth
# NCI-H522 = format: cell-based; conditions: Homo sapiens, one dose 10^-5 M, 48 h
# COLO 205 = format: cell-based; conditions: Homo sapiens, one dose 10^-5 M, 48 h
# HCC-2998 = format: cell-based; conditions: Homo sapiens, one dose 10^-5 M, 48 h
# HCT-116 = format: cell-based; conditions: Homo sapiens, one dose 10^-5 M, 48 h, read-out: % growth
# HCT-15 = format: cell-based; conditions: Homo sapiens, one dose 10^-5 M, 48 h, read-out: % growth
# HT29 = format: cell-based; conditions: Homo sapiens, HT-29, one dose 10^-5 M, 48 h
# KM12 = format: cell-based; conditions: Homo sapiens, one dose 10^-5 M, 48 h
# SW-620 = format: cell-based; conditions: Homo sapiens, one dose 10^-5 M, 48 h
# SF-268 = format: cell-based; conditions: Homo sapiens, one dose 10^-5 M, 48 h, read-out: % growth
# SF-295 = format: cell-based; conditions: Homo sapiens, one dose 10^-5 M, 48 h
# SF-539 = format: cell-based; conditions: Homo sapiens, one dose 10^-5 M, 48 h
# SNB-19 = format: cell-based; conditions: Homo sapiens, one dose 10^-5 M, 48 h, read-out: % growth
# SNB-75 = format: cell-based; conditions: Homo sapiens, one dose 10^-5 M, 48 h
# U251 = format: cell-based; conditions: Homo sapiens, U-251, one dose 10^-5 M, 48 h
# LOX IMVI = format: cell-based; conditions: Homo sapiens, one dose 10^-5 M, 48 h, read-out: % growth
# MALME-3M = format: cell-based; conditions: Homo sapiens, one dose 10^-5 M, 48 h
# M14 = format: cell-based; conditions: Homo sapiens, one dose 10^-5 M, 48 h
# MDA-MB-435 = format: cell-based; conditions: Homo sapiens, one dose 10^-5 M, 48 h, read-out: % growth
# SK-MEL-2 = format: cell-based; conditions: Homo sapiens, one dose 10^-5 M, 48 h
# SK-MEL-28 = format: cell-based; conditions: Homo sapiens, one dose 10^-5 M, 48 h
# SK-MEL-5 = format: cell-based; conditions: Homo sapiens, one dose 10^-5 M, 48 h, read-out: % growth
# UACC-257 = format: cell-based; conditions: Homo sapiens, one dose 10^-5 M, 48 h
# UACC-62 = format: cell-based; conditions: Homo sapiens, one dose 10^-5 M, 48 h
# IGROV1 = format: cell-based; conditions: Homo sapiens, IGROV-1, one dose 10^-5 M, 48 h, read-out: % growth
# OVCAR-3 = format: cell-based; conditions: Homo sapiens, one dose 10^-5 M, 48 h
# OVCAR-4 = format: cell-based; conditions: Homo sapiens, one dose 10^-5 M, 48 h
# OVCAR-5 = format: cell-based; conditions: Homo sapiens, one dose 10^-5 M, 48 h
# OVCAR-8 = format: cell-based; conditions: Homo sapiens, one dose 10^-5 M, 48 h
# NCI/ADR-RES = format: cell-based; conditions: Homo sapiens, one dose 10^-5 M, 48 h
# SK-OV-3 = format: cell-based; conditions: Homo sapiens, one dose 10^-5 M, 48 h
# 786-0 = format: cell-based; conditions: Homo sapiens, one dose 10^-5 M, 48 h
# A498 = format: cell-based; conditions: Homo sapiens, one dose 10^-5 M, 48 h
# ACHN = format: cell-based; conditions: Homo sapiens, one dose 10^-5 M, 48 h
# CAKI-1 = format: cell-based; conditions: Homo sapiens, CAKI-1, 48 h, one dose 10^-5 M, 48 h
# SN12C = format: cell-based, human; conditions: Homo sapiens, one dose 10^-5 M, 48 h
# TK-10 = format: cell-based; conditions: Homo sapiens, one dose 10^-5 M, 48 h
# UO-31 = format: cell-based; conditions: Homo sapiens, UO-31, 48 h, one dose 10^-5 M, 48 h
# PC-3 = format: cell-based; conditions: Homo sapiens, one dose 10^-5 M, 48 h
# DU-145 = format: cell-based; conditions: Homo sapiens, one dose 10^-5 M, 48 h
# MCF7 = format: cell-based; conditions: Homo sapiens, one dose 10^-5 M, 48 h, read-out: % growth
# MDA-MB-231/ATCC = format: cell-based; conditions: Homo sapiens, one dose 10^-5 M, 48 h
# HS 578T = format: cell-based; conditions: Homo sapiens; one dose 10^-5 M, 48 h; HS 578T; read-out: % growth
# BT-549 = format: cell-based; conditions: Homo sapiens, one dose 10^-5 M, 48 h
# T-47D = format: cell-based; conditions: Homo sapiens, T47D, one dose 10^-5 M, 48 h, read-out: % growth
# MDA-MB-468 = format: cell-based; conditions: Homo sapiens, one dose 10^-5 M, 48 h
# [1] = system: full NCI 60 cell lines panel; conditions: for activity at 10 µM: Homo sapiens, 60 cell, 48 h, read-out: Mean % growth; for activity on all 60 cancer cell lines tested (in words): one dose
# Protocol: 60 different human tumour cell lines-representing leukaemia, melanoma, and malignancies of the lung, colon, brain, ovary, breast, prostate, and kidney are used in the operation of this screen.
# Compounds were dissolved in DMSO: glycerol (91) and were kept in a freezer at −70° C. The synthesised compounds were introduced to the culture at a single concentration of 1 0 ^−5 M and left to incubate for 48 h. A protein-binding dye called sulforhodamine B was used to measure end points (SRB).
# A mean graph showing the % growth of treated cells is used to represent the one-dose data. The value provided for the One-dose assay represents growth in comparison to the no-drug control and to the number of cells at time zero. This enables the identification of lethality (values between 0 and 100) as well as growth inhibition (values less than 0). A value of 100, for instance, indicates no growth inhibition. A value of 40 would indicate 60% growth inhibition. A value of 0 indicates no net growth over the course of the experiment. A value of −40 would indicate 40% lethality.
# Furthermore, the average sensitivity of all cell lines to the compound is termed as the full panel mean graph midpoints (MG-MID). The complete panel mean graph midpoints refers to the average sensitivity of all cell lines to the chemical (MG-MID). A measure of a compound’s selectivity for a given cell line is the ratio created by dividing the full panel mean graph midpoints (MG-MID) concentration by the individual subpanel MG-MID concentrations (obtained as the average sensitivity of all the cell lines in a given subpanel to the test compound).
structure (smiles),measurement,setting,value
"COc1ccc(/C=N\NC(=N)c2c(N)nc(S)nc2-c2ccc(N(C)C)cc2)cc1 [Compound 4d, 4-amino-N'-[(1Z)-(4-methoxyphenyl)methylene]-6-[4-(dimethylamino)phenyl]-2-mercapto pyrimidine-5-carboximidohydrazide]",% cell growth at 10 µM,CCRF-CEM,78.9%
same,% growth at 10 µM,HL-60(TB),93.8%
same,% growth at 10 µM,K-562,101%
same,activity at 10 µM,MOLT-4,101%
same,% growth at 10 µM,RPMI-8226,86.5%
same,percent cell growth at 10 µM,SR,102%
same,% growth at 10 µM,A549/ATCC,103%
same,% cell growth at 10 µM,EKVX,99%
same,% growth at 10 µM,HOP-62,106%
same,% growth at 10 µM,HOP-92,109%
same,% growth at 10 µM,NCI-H226,103%
same,activity at 10 µM,NCI-H23,103%
same,activity at 10 µM,NCI-H460,106%
same,% growth at 10 µM,NCI-H522,93.3%
same,% growth at 10 µM,COLO 205,118%
same,% growth at 10 µM,HCC-2998,108%
same,activity at 10 µM,HCT-116,108%
same,activity at 10 µM,HCT-15,98.2%
same,% growth at 10 µM,HT29,100%
same,% growth at 10 µM,KM12,93.2%
same,% growth at 10 µM,SW-620,103%
same,activity at 10 µM,SF-268,97%
same,% cell growth at 10 µM,SF-295,104%
same,% growth at 10 µM,SF-539,108%
same,activity at 10 µM,SNB-19,101%
same,% growth at 10 µM,SNB-75,101%
same,% growth at 10 µM,U251,106%
same,activity at 10 µM,LOX IMVI,101%
same,% growth at 10 µM,MALME-3M,98.4%
same,% growth at 10 µM,M14,96.1%
same,activity at 10 µM,MDA-MB-435,96.7%
same,% growth at 10 µM,SK-MEL-2,109%
same,% cell growth at 10 µM,SK-MEL-28,105%
same,activity at 10 µM,SK-MEL-5,102%
same,percent cell growth at 10 µM,UACC-257,106%
same,% growth at 10 µM,UACC-62,94.3%
same,activity at 10 µM,IGROV1,104%
same,% growth at 10 µM,OVCAR-3,105%
same,% growth at 10 µM,OVCAR-4,96.8%
same,percent cell growth at 10 µM,OVCAR-5,103%
same,% growth of cells at 10 µM,OVCAR-8,104%
same,cell growth percent at 10 µM,NCI/ADR-RES,107%
same,% growth at 10 µM,SK-OV-3,110%
same,% growth at 10 µM,786-0,98.3%
same,% growth at 10 µM,A498,119%
same,% growth at 10 µM,ACHN,103%
same,% growth at 10 µM,CAKI-1,97.5%
same,% growth at 10 µM,SN12C,100%
same,% cell growth at 10 µM,TK-10,103%
same,% cell growth at 10 µM,UO-31,72%
same,percent cell growth at 10 µM,PC-3,88.5%
same,% growth at 10 µM,DU-145,106%
same,activity at 10 µM,MCF7,95.2%
same,% growth at 10 µM,MDA-MB-231/ATCC,103%
same,activity at 10 µM,HS 578T,112%
same,% cell growth at 10 µM,BT-549,102%
same,activity at 10 µM,T-47D,98.7%
same,percent cell growth at 10 µM,MDA-MB-468,114%
same,activity at 10 µM,[1],101%
same,activity on all 60 cancer cell lines tested (in words),[1],weak activity
"CN(C)c1ccc(-c2nc(S)nc(N)c2C(=N)NN=Cc2ccc(Cl)cc2)cc1 [Compound 4b, 4-amino-N'-[(4-chlorophenyl)methylene]-6-[4-(dimethylamino)phenyl]-2-mercapto pyrimidine-5-carboximidohydrazide]",% cell growth at 10 µM,CCRF-CEM,76.3%
same,% growth at 10 µM,HL-60(TB),91.8%
same,% growth at 10 µM,K-562,98.5%
same,activity at 10 µM,MOLT-4,101%
same,% growth at 10 µM,RPMI-8226,79.1%
same,percent cell growth at 10 µM,SR,98.7%
same,% growth at 10 µM,A549/ATCC,98.4%
same,% cell growth at 10 µM,EKVX,91.8%
same,% growth at 10 µM,HOP-62,109%
same,% growth at 10 µM,HOP-92,118%
same,% growth at 10 µM,NCI-H226,99.8%
same,activity at 10 µM,NCI-H23,101%
same,activity at 10 µM,NCI-H460,99.8%
same,% growth at 10 µM,NCI-H522,92.4%
same,% growth at 10 µM,COLO 205,137%
same,% growth at 10 µM,HCC-2998,94.3%
same,activity at 10 µM,HCT-116,100%
same,activity at 10 µM,HCT-15,92.3%
same,% growth at 10 µM,HT29,92.7%
same,% growth at 10 µM,KM12,92.9%
same,% growth at 10 µM,SW-620,102%
same,activity at 10 µM,SF-268,97.5%
same,% cell growth at 10 µM,SF-295,96.8%
same,% growth at 10 µM,SF-539,98%
same,activity at 10 µM,SNB-19,98.8%
same,% growth at 10 µM,SNB-75,95.2%
same,% growth at 10 µM,U251,106%
same,activity at 10 µM,LOX IMVI,103%
same,% growth at 10 µM,MALME-3M,98.7%
same,% growth at 10 µM,M14,96.9%
same,activity at 10 µM,MDA-MB-435,96.2%
same,% growth at 10 µM,SK-MEL-2,107%
same,% cell growth at 10 µM,SK-MEL-28,103%
same,activity at 10 µM,SK-MEL-5,97.6%
same,percent cell growth at 10 µM,UACC-257,99.7%
same,% growth at 10 µM,UACC-62,94%
same,activity at 10 µM,IGROV1,102%
same,% growth at 10 µM,OVCAR-3,102%
same,% growth at 10 µM,OVCAR-4,95.5%
same,percent cell growth at 10 µM,OVCAR-5,109%
same,% growth of cells at 10 µM,OVCAR-8,106%
same,cell growth percent at 10 µM,NCI/ADR-RES,104%
same,% growth at 10 µM,SK-OV-3,120%
same,% growth at 10 µM,786-0,86.7%
same,% growth at 10 µM,A498,92.1%
same,% growth at 10 µM,ACHN,102%
same,% growth at 10 µM,CAKI-1,102%
same,% growth at 10 µM,SN12C,88.5%
same,% cell growth at 10 µM,TK-10,90%
same,% cell growth at 10 µM,UO-31,65.4%
same,percent cell growth at 10 µM,PC-3,91.5%
same,% growth at 10 µM,DU-145,100%
same,activity at 10 µM,MCF7,90.9%
same,% growth at 10 µM,MDA-MB-231/ATCC,102%
same,activity at 10 µM,HS 578T,97.5%
same,% cell growth at 10 µM,BT-549,95.7%
same,activity at 10 µM,T-47D,88.3%
same,percent cell growth at 10 µM,MDA-MB-468,107%
same,activity at 10 µM,[1],98.2%
same,activity on all 60 cancer cell lines tested (in words),[1],weak activity
